These results are taken from patent US12441716B2, “Compositions and methods for increasing muscle mass and oxidative metabolism” (The Regents of the University of California, priority 2019, dated 2025).

A short description of series [1]: log P (partition coefficient between organic and aqueous phase). It counts as physicochemical. From the text:
It has been determined that compounds having a chemical structure of Formula I and/or Formula VII, or a pharmaceutically acceptable salt or solvate thereof, can increase muscle mass and muscle function. These chemicals can be effective in treating muscular dystrophy, such as limb girdle muscular dystrophy type 2A/R1/D1. Not to be bound by theory, it is believed that these compounds may provide their biological effect by over-riding the CAMKII signaling block by activating CaMKII. Accordingly, these can increase muscle size, mitochondrial complex I and II activity, expression of genes that comprise the slow fiber phenotype and running performance. Embodiments of the current disclosure is directed to compositions and methods of use for compounds having a chemical structure of Formula I and/or Formula VII, or a pharmaceutically acceptable salt or solvate thereof, that show similar or higher activity on CAMKII signaling as of AMBMP, but are less toxic and/or more soluble than AMBMP (Formula VI). […] One or more compounds having a chemical structure of Formula I and/or Formula VII, can have a EC50 potency of <1 uM on endogenous myosin light chain 2 (Myl2) promoter in C2C12 cells. The compounds can have a solubility >10 uM in water at standard temperature and pressure. […] Toxicity can be measured as a dose dependent effect of the compounds on cell death of C2C12 cells.

The target in series [2] is T1, CaMKIIβ (Mus musculus, UniProt P28652).
T1 construct: from tissue; host or cells: tissue of treated C3KO and WT mice
The series is described as follows: CaMKIIβ activation in mouse skeletal muscles after injection, western blot with anti-phospho CaMKIIβ antibody. Format: in vivo. Conditions: mice, 10 mg/kg intraperitoneally; muscles collected 2, 4 and 6 hrs after injection; DMSO control. On the procedure: Mice were injected intraperitoneally with 10 mg/kg of AMBMP analog 3. Skeletal muscles were collected at 2, 4 and 6 hrs after injection. Mice injected with DMSO were used as a control group.
(In general: Immunoblotting shows a protein as a band on a membrane.)

Series [3] deals with endogenous Myosin light chain-2 (Myl2) expression in C2C12 cells. The series is described as follows: Myl2 expression in C2C12 cells, RT-PCR normalized to GAPDH. It counts as cell-based. The following applies: for Myl2 Relative expression/Gapdh at 2.5 μM: C2C12 cells, relative to GAPDH house-keeping control gene. The method, then: Bioactivity data of AMBMP analogs 1-6, 17, 18, and 25. Dose dependent effect of AMBMP analogs 1-6, 17, 18, and 25 on endogenous Myosin light chain-2 (Myl2) expression in C2C12 cells is shown in FIG. 16 A.
Effect of 2.5 μM AMBMP analog 1-6, 8, 17, 21, 25, 38, 39, and 40 on Myl2 expression relative to GAPDH (house-keeping control gene) in C2C12 cells is shown in Table 1. Myl2 is a marker of CaMKIIβ activity.
AMBMP analog 40 was tested in C2C12 myogenic cells for its ability to induce expression of Myl2. C2C12 cells were treated with AMBMP or AMBMP analog 40 for 48 hrs (concentrations are indicated on the graph); DMSO was used as a negative control. Expression of Myl2 was assessed by RT-PCR and normalized to GAPDH as a house-keeping control gene.

The next series deals with C2C12 myogenic cells. Kind of series: Tolerance of C2C12 myogenic cells to compound. Conditions: data not shown. It counts as cell-based.
Series [4] has as its system C3KO mice. Kind of series: Exercise performance after endurance training in C3KO mice. It counts as in vivo. Conditions: i.p. 7.5 mg/kg/day for 14 days, 3-week endurance training. An excerpt: Shown in FIG. 13, AMBMP treatment leads to improved exercise performance. Mice were subjected to endurance training over a 3-week period while being treated. Exercise performance was compared between pre and post exercise condition. Wild type (WT) mice were not treated with AMBMP.

In another series the test system is AKT. The series is described as follows: AKT signaling in treated C3KO mice. It counts as in vivo. Conditions: i.p. 7.5 mg/kg/day for 2 weeks. An excerpt:
(§1) Shown in FIG. 14, C3KO mice treated with AMBMP have normalized CaMKIIβ activity, but AKT or AMPK signaling are not affected.

The subject of series [5] is C3KO mice. The series is described as follows: Mitochondrial function / mitochondrial content (NADH staining) in muscles of treated C3KO mice. It counts as in vivo. The method, then: (§2) Average cross-sectional area (CSA) measured in muscle cross sections after staining for fiber type. […] A) C3KO mice i.p. injected with AMBMP hydrochloride (7.5 mg/kg/day) for 14 days. B) C3KO mice treated AMBMP hydrochloride (7.5 mg/kg/day) for 14 days by subcutaneous (subQ) injection.
One set of C3KO mice were i.p. injected with AMBMP hydrochloride (7.5 mg/kg/day) for 14 days, another set of C3KO mice were i.p. injected with AMBMP hydrochloride (15 mg/kg/day) for 14 days and a control set of C3KO mice were not treated with AMBMP. Percent of total fibers with high mitochondrial content and intermediate mitochondrial content increased with AMBMP treatment in a dose dependent manner, and percent of total fibers with low mitochondrial content decreased with AMBMP treatment in a dose dependent manner (FIG. 12A). […] Quantification of NADH staining on plantaris muscles from AMBMP-treated mice (either 7.5 or 15 mg/kg, for 2 weeks (wks)) shown as a ratio of FOG:FG fibers. *p<0.05.

The test system of series [6] is C3KO mice. The series is described as follows: Muscle fiber cross-sectional area in treated C3KO mice. It counts as in vivo. Conditions: 7.5 mg/kg/day for 14 days, i.p. or subQ injection. The method, then: as §2
The next series relates to AMPK. The series is described as follows: AMPK signaling in treated C3KO mice. It counts as in vivo. The following applies: i.p. 7.5 mg/kg/day for 2 weeks.
Text: as §1

The target of series [7] is T1, CaMKIIβ. Kind of series: CaMKIIβ activity in mice treated for 2 weeks. Format: in vivo. Conditions: i.p. 7.5 mg/kg/day for 2 weeks.
Text: as §1

A further series concerns Capn3−/− muscles. The series is described as follows: Percent slow myosin heavy chain positive fibers in soleus of calpainopathy mice. It counts as in vivo. The following applies: daily for 2 wks at 30 mg/kg subQ.

T1 sequence (P28652 whole entry): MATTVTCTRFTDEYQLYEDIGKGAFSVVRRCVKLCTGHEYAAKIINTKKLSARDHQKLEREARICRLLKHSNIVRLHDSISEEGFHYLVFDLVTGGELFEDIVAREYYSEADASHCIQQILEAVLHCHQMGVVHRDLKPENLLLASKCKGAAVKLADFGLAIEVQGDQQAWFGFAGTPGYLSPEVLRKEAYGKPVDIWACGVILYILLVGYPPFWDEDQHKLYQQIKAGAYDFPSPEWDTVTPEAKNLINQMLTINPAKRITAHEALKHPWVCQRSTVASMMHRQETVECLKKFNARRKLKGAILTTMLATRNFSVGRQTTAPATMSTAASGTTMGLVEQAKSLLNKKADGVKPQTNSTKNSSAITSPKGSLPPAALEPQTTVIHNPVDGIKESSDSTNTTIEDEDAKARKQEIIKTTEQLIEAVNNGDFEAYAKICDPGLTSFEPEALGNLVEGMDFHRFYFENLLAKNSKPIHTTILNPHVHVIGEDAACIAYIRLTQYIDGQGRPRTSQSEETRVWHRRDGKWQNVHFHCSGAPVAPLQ

Usually logP stands for the decadic logarithm of the partition coefficient of the neutral form, usually between octanol and water. A lower logP goes with lower lipophilicity. Consider `Nc1nc(NCc2ccc3c(c2)OCO3)cc(-c2cccc(O)c2)n1` [AMBMP Analog 3, 3-(2-amino-6-((benzo[d][1,3]dioxol-5-ylmethyl)amino)pyrimidin-4-yl)phenol], for which the lipophilicity (logP) in series [1] is 2.47. Also, the “phospho-CaMKIIβ (P-CaMK) in skeletal muscles” value on CaMKIIβ [2] was “CaMKIIβ activation”. Moreover, the “Myl2 Relative expression/Gapdh at 2.5 μM” value in series [3] is given as 0.4.
As for `CCOc1cccc(-c2cc(NCc3ccc4c(c3)OCO4)nc(N)n2)c1` [AMBMP Analog 4], the “Myl2 Relative expression/Gapdh at 2.5 μM” value in [3] is on record as 2.
Consider `CCCOc1cccc(-c2cc(NCc3ccc4c(c3)OCO4)nc(N)n2)c1` [AMBMP Analog 5], for which the “Myl2 Relative expression/Gapdh at 2.5 μM” value in series [3] stood at 0.6.
The same measure, in the same setting: next, `CC(C)(C)Oc1cccc(-c2cc(NCc3ccc4c(c3)OCO4)nc(N)n2)c1` [AMBMP Analog 6]: 1.2; `Nc1nc(NCc2ccc3c(c2)OCO3)cc(-c2ccc(OC(F)(F)F)cc2)n1` [AMBMP Analog 17]: 0.2.
Take `COc1cc(O)cc(-c2cc(NCc3ccc4c(c3)OCO4)nc(N)n2)c1` [AMBMP Analog 40, 3-(2-amino-6-((benzo[d][1,3]dioxol-5-ylmethyl)amino)pyrimidin-4-yl)-5-methoxyphenol]: the “tolerance by the cells compared to AMBMP” value with C2C12 myogenic cells is reported as “better tolerated”. The “Myl2 Relative expression/Gapdh at 2.5 μM” value in series [3] is on record as 1.2. In addition, in series [3] (C2C12 myogenic cells treated 48 hrs (1.25 μM, 5 μM), RT-PCR normalized to GAPDH, DMSO negative control), the “increase of Myl2 expression” value was 2.5-2.9 fold.
Take `COc1cccc(-c2cc(NCc3ccc4c(c3)OCO4)nc(N)n2)c1.Cl` [AMBMP hydrochloride]: in the series on C3KO mice [4], the “exercise performance pre vs post endurance training” value is “show a training effect”. Moreover, in the series on AKT, the AKT signaling entry is reported as “without impacting”. For the same compound, the “mitochondrial function compared to control” value with C3KO mice [5] (i.p. 7.5 mg/kg/day for 14 days) is recorded as “improved mitochondrial function”. Also, the mitochondrial content result in the series on C3KO mice [5] (i.p. 7.5 or 15 mg/kg/day for 14 days, plantaris muscles) is “increased mitochondrial content in a dose dependent manner”. For the same compound, in the series with C3KO mice [6], the “cross-sectional area of slow fibers” value is recorded as “significantly increased” and the “cross-sectional area, both fiber types” value is reported as “increase”. Further, the AMPK signaling result in the series on AMPK is “without impacting”. The “CaMKIIβ activity over untreated control” value on CaMKIIβ [7] (C3KO mice) is listed as “increased CaMKIIβ activity”. The “CaMKIIβ activity over untreated control” value at CaMKIIβ [7] (WT mice) is “increased CaMKIIβ activity”.
Consider `COc1cccc(-c2cc(NCc3ccc4c(c3)OCO4)nc(N)n2)c1` [AMBMP], for which the “% slow myosin heavy chain positive fibers in soleus” value with Capn3−/− muscles is recorded as “Statistically significant shift”. Besides, the “Myl2 Relative expression/Gapdh at 2.5 μM” value in series [3] was 1.4.
